Carcinogen call data for seven molecules are collected here from PubChem BioAssay AID1259411 (Chemical Carcinogenesis Research Information System (CCRIS), 2018).

The series relates to rodent carcinogenicity bioassays, tumor incidence. As to the kind of experiment: CCRIS carcinogenicity studies. The procedure, abridged: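 Archive of carcinogenicity, mutagenicity, tumor promotion and tumor inhibition results drawn from journals, NCI reports and other sources, expert-reviewed; covers 1985-2011 and is no longer updated.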

SMILES strings stand for the structures. Calls of active or inactive are those of the source. No rule for the calls is given here.

Regarding `CN(C)[C@@H]1C(=O)C(C(N)=O)=C(O)[C@@]2(O)C(=O)C3=C(O)c4c(O)cccc4[C@@](C)(O)[C@H]3C[C@@H]12`, the carcinogen call was “inactive; negative” (Species: MOUSE, Strain/Sex: B6C3F1/FEMALE, Route: GAVAGE, Dose: 0, 12500, 25000 PPM IN FEED FOR 103 WK (STUDY DURATION: 104 WK), Dose: 0, 12500, 25000 PPM IN FEED FOR 103 WK (STUDY DURATION: 104 WK)); “inactive; negative” (Species: MOUSE, Strain/Sex: B6C3F1/FEMALE, Route: ORAL, Dose: 0, 12500, 25000 PPM IN DIET FOR 103 WK (STUDY DURATION: 103 WK), Dose: 0, 12500, 25000 PPM IN DIET FOR 103 WK (STUDY DURATION: 103 WK)); “inactive; negative” (Species: MOUSE, Strain/Sex: B6C3F1/MALE, Route: ORAL, Dose: 0, 12500, 25000 PPM IN DIET FOR 103 WK (STUDY DURATION: 103 WK), Dose: 0, 12500, 25000 PPM IN DIET FOR 103 WK (STUDY DURATION: 103 WK)); “inactive; negative” (Species: MOUSE, Strain/Sex: B6C3F1/MALE, Route: ORAL, Dose: 0, 12500, 25000 PPM IN FEED FOR 103 WK (STUDY DURATION: 104 WK), Dose: 0, 12500, 25000 PPM IN FEED FOR 103 WK (STUDY DURATION: 104 WK)); “inactive; negative” (Species: RAT, Strain/Sex: F344/FEMALE, Route: ORAL, Dose: 0, 12500, 25000 PPM IN DIET FOR 103 WK (STUDY DURATION: 103 WK), Dose: 0, 12500, 25000 PPM IN DIET FOR 103 WK (STUDY DURATION: 103 WK)); “inactive; negative” (Species: RAT, Strain/Sex: F344/FEMALE, Route: ORAL, Dose: 0, 12500, 25000 PPM IN FEED FOR 103 WK (STUDY DURATION: 104 WK), Dose: 0, 12500, 25000 PPM IN FEED FOR 103 WK (STUDY DURATION: 104 WK)). In addition, the carcinogen call is, setting by setting: (Species: RAT, Strain/Sex: F344/MALE, Route: ORAL, Dose: 0, 12500, 25000 PPM IN DIET FOR 103 WK (STUDY DURATION: 103 WK), Dose: 0, 12500, 25000 PPM IN DIET FOR 103 WK (STUDY DURATION: 103 WK)) “inactive; negative”; (Species: RAT, Strain/Sex: F344/MALE, Route: ORAL, Dose: 0, 12500, 25000 PPM IN FEED FOR 103 WK (STUDY DURATION: 104 WK), Dose: 0, 12500, 25000 PPM IN FEED FOR 103 WK (STUDY DURATION: 104 WK)) “inactive; negative”.

On to `Cc1ccc(Cl)cc1N`, for which the carcinogen call runs as follows: (Species: MOUSE, Strain/Sex: B6C3F1/FEMALE, Route: ORAL, Dose: 0, 2000, 4000 PPM IN DIET, Dose: 0, 2000, 4000 PPM IN DIET, Tumor Site: Type of Lesion: BLOOD VESSELS: HEMANGIOSARCOMA, LIVER: HEPATOCELLULAR ADENOMA OR CARCINOMA) “active; positive”; (Species: MOUSE, Strain/Sex: B6C3F1/MALE, Route: ORAL, Dose: 0, 2000, 4000 PPM IN DIET, Dose: 0, 2000, 4000 PPM IN DIET, Tumor Site: Type of Lesion: BLOOD VESSELS: HEMANGIOSARCOMA, LIVER: HEPATOCELLULAR ADENOMA OR CARCINOMA) “active; positive”; (Species: RAT, Strain/Sex: F344/FEMALE, Route: ORAL, Dose: 0, 2500, 5000 PPM IN DIET, Dose: 0, 2500, 5000 PPM IN DIET) “inactive; negative”; (Species: RAT, Strain/Sex: F344/MALE, Route: ORAL, Dose: 0, 2500, 5000 PPM IN DIET, Dose: 0, 2500, 5000 PPM IN DIET) “inactive; negative”.

As to `C=CN(C)N=O`, the carcinogen call by setting is: (Species: RAT, Route: INHALATION, Tumor Site: Type of Lesion: NASAL CAVITY) “active; positive”; (Species: RAT, Route: ORAL, Tumor Site: Type of Lesion: ESOPHAGUS) “active; positive”.

For the molecule `c1ccc2c(c1)-c1cccc3cccc-2c13`, the carcinogen call (Species: MOUSE, Strain/Sex: B6C3F1/MALE, Route: INTRAPERITONEAL, Dose: 0, 400 NMOL IN 35 µL DMSO ON DAYS 1 (1/7 TOTAL DOSE), 8 (2/7 TOTAL DOSE), AND 15 (4/7 TOTAL DOSE) AFTER BIRTH (STUDY DUR) was “inactive; negative”; the carcinogen call (Species: MOUSE, Strain/Sex: CD-1/FEMALE, Route: INTRAPERITONEAL, Dose: 0, 3.46, 17.3 UMOL (TOTAL DOSE) IN DMSO ADMINISTERED ON DAYS 1, 8, AND 15 OF LIFE (STUDY DURATION: 52 WK), Dose: 0, 3.46, 17.3 UMOL (TOTAL DOSE) IN DMSO ADMINISTERED ON DAYS 1, 8, AND 15 OF LIFE (STUDY DURATION: 52 WK), Tumor Site: Type of Lesion: LUNG: TUMOR) is “active; positive”; the carcinogen call (Species: MOUSE, Strain/Sex: CD-1/MALE, FEMALE, Route: INTRAPERITONEAL, Dose: 0, 0.7, 1.75, 3.5 (TOTAL DOSE) ADMINISTERED TO NEWBORN MICE ON DAYS 1, 8, AND 15 OF AGE IN 1/7, 2/7, AND 4/7 DOSES, RESP, Dose: 0, 0.7, 1.75, 3.5 (TOTAL DOSE) ADMINISTERED TO NEWBORN MICE ON DAYS 1, 8, AND 15 OF AGE IN 1/7, 2/7, AND 4/7 DOSES, RESP, Tumor Site: Type of Lesion: LUNG: ADENOMA OR ADENOCARCINOMA) was “active; positive”; the carcinogen call (Species: MOUSE, Strain/Sex: CD-1/MALE, Route: INTRAPERITONEAL, Dose: 0, 3.46, 17.3 UMOL (TOTAL DOSE) IN DMSO ADMINISTERED ON DAYS 1, 8, AND 15 OF LIFE (STUDY DURATION: 52 WK), Dose: 0, 3.46, 17.3 UMOL (TOTAL DOSE) IN DMSO ADMINISTERED ON DAYS 1, 8, AND 15 OF LIFE (STUDY DURATION: 52 WK), Tumor Site: Type of Lesion: LUNG: TUMOR, LIVER: TUMOR) was “active; positive”; the carcinogen call (Species: MOUSE, Strain/Sex: ICR/FEMALE, Route: INTRAPERITONEAL, Dose: 0, 257.6 UG TOTAL DOSE (36.8 UG/5 µL, 73.6 UG/10 µL, 147.2 UG/20 µL DMSO ON DAYS 1, 8 AND 15) ADMINISTERED TO NEWBORN AN, Tumor Site: Type of Lesion: LUNG: ADENOMA) was “active; positive”; the carcinogen call (Species: MOUSE, Strain/Sex: ICR/MALE, Route: INTRAPERITONEAL, Dose: 0, 257.6 UG TOTAL DOSE (36.8 UG/5 µL, 73.6 UG/10 µL, 147.2 UG/20 µL DMSO ON DAYS 1, 8 AND 15) ADMINISTERED TO NEWBORN AN, Tumor Site: Type of Lesion: LUNG: ADENOMA) is “active; positive”. In addition, the carcinogen call is “active; positive” (Species: MOUSE, Strain/Sex: SWISS/FEMALE, Route: INTRAPERITONEAL, Dose: 0, 100, 500 UG IN DMSO ON DAY 1 OF STUDY FOLLOWED BY 0, 200, 1000 UG ON DAY 8 THEN 0, 400, 2000 UG ON DAY 15 ADMINISTERE, Dose: 0, 100, 500 UG IN DMSO ON DAY 1 OF STUDY FOLLOWED BY 0, 200, 1000 UG ON DAY 8 THEN 0, 400, 2000 UG ON DAY 15 ADMINISTERE, Tumor Site: Type of Lesion: LUNG: ADENOMA OR CARCINOMA) and “active; positive” (Species: MOUSE, Strain/Sex: SWISS/MALE, Route: INTRAPERITONEAL, Dose: 0, 100, 500 UG IN DMSO ON DAY 1 OF STUDY FOLLOWED BY 0, 200, 1000 UG ON DAY 8 THEN 0, 400, 2000 UG ON DAY 15 ADMINISTERE, Dose: 0, 100, 500 UG IN DMSO ON DAY 1 OF STUDY FOLLOWED BY 0, 200, 1000 UG ON DAY 8 THEN 0, 400, 2000 UG ON DAY 15 ADMINISTERE, Tumor Site: Type of Lesion: LUNG: ADENOMA OR CARCINOMA).

Take `O=C1NCCN1/N=C/c1ccc([N+](=O)[O-])o1`: under “Species: RAT, Route: ORAL, Tumor Site: Type of Lesion: LYMPHATIC SYSTEM: LYMPHOBLASTIC LYMPHOMA, MAMMARY GLAND”, the carcinogen call is “active; positive”.

Take `ClC(Cl)(Cl)c1ccccc1`: the carcinogen call (Species: MOUSE, Strain/Sex: ICR/FEMALE, Route: GAVAGE, Dose: 0, 0.0315, 0.125, 0.5, 2 µL IN STERILIZED SESAME OIL 2/WK FOR 25 WK (STUDY DURATION: 18 MO), Dose: 0, 0.0315, 0.125, 0.5, 2 µL IN STERILIZED SESAME OIL 2/WK FOR 25 WK (STUDY DURATION: 18 MO), Tumor Site: Type of Lesion: FORESTOMACH: SQUAMOUS CELL CARCINOMA, LUNG: ADENOCARCINOMA OR ADENOMA, HEMATOPOIETIC SYSTEM: TUMORS, Tumor Site: Type of Lesion: FORESTOMACH: SQUAMOUS CELL CARCINOMA, LUNG: ADENOCARCINOMA OR ADENOMA, HEMATOPOIETIC SYSTEM: TUMORS) is “active; positive”.

`C#CC(C)(C)NC(=O)c1cc(Cl)cc(Cl)c1`: the carcinogen call (Species: MOUSE, Strain/Sex: B6C3F1/MALE, Route: ORAL, Dose: 0, 20, 100, 500, 2500 PPM IN DIET FOR 12, 18 OR 24 MO (STUDY DURATION: 24 MO), Dose: 0, 20, 100, 500, 2500 PPM IN DIET FOR 12, 18 OR 24 MO (STUDY DURATION: 24 MO), Tumor Site: Type of Lesion: LIVER: HEPATOCELLULAR CARCINOMA OR ADENOMA) was “active; positive”.
